From patent publication US12384769B2, “Heteroaryl-substituted aminoalkyl azole compounds as pesticides” (Elanco Animal Health GmbH, priority 2019, dated 2025)

Key:
Type in all cases: in vivo
Diabrotica balteata = Diabrotica balteata spray test; conditions: 168 h, wheat seeds, after 7 days, read-out: activity (efficacy, seedlings grown); for pest or weed control at 160 µg/disc, 500 g/ha: 500 g/ha (=160 μg/well)
Description: Diabrotica balteata—Spray Test
Solvent: 78.0 parts by weight of acetone • • 1.5 parts by weight of dimethylformamide
(§1) Emulsifier: alkylarylpolyglycol ether
(§2) To produce a suitable preparation of active compound, 1 part by weight of active compound is mixed with the stated amount of solvent, and the concentrate is diluted with water, containing an emulsifier concentration of 1000 ppm, to the desired concentration. Further test concentrations are prepared by dilution with emulsifier containing water.
Soaked wheat seeds (Triticum aestivum) are placed in a multiple well plate filled with agar and some water and are incubated for 1 day to germinate (5 seeds per well). The germinated wheat seeds are sprayed with a test solution containing the desired concentration of the active ingredient. Afterwards each unit is infected with 10-20 larvae of the banded cucumber beetle (Diabrotica balteata).
After 7 days efficacy in % is determined. 100% means all the seedlings have grown up like in the untreated, uninfected control; 0% means none of the seedlings have grown.

Boophilus microplus = Boophilus microplus injection test (BOOPMI Injection); conditions: Rhipicephalus microplus, 168 h, injection into adult engorged female ticks, egg deposition after 7 days, read-out: activity (efficacy, infertile eggs); for pest or weed control at 0.004 mg: 4 μg/animal; for pest or weed control at 0.02 mg: 20 μg/animal
Description: Boophilus microplus—Injection Test (BOOPMI Injection)
Solvent: dimethyl sulfoxide
To produce a suitable preparation of active compound, 10 mg of active compound are dissolved in 0.5 mL solvent, and the concentrate is diluted with solvent to the desired concentration.
Five adult engorged female ticks (Boophilus microplus) are injected with 1 μL compound solution into the abdomen. The ticks are transferred into replica plates and incubated in a climate chamber.
After 7 days egg deposition of fertile eggs is monitored. Eggs where fertility is not visible are stored in a climate chamber till hatching after about 42 days. An efficacy of 100% means all eggs are infertile; 0% means all eggs are fertile.

[1] = tested on: Rhipicephalus microplus (strain Parkhurst, resistant against synthetic pyrethroids); experiment: Rhipicephalus microplus in-vitro contact test, larval cattle tick (BOOPMI Contact); conditions: 5 μg/cm^2 (=500 g/ha), after 48 hours, read-out: activity (efficacy, larvae dead or moribund)
Description: Rhipicephalus microplus—in-Vitro Contact Tests Larval Cattle Tick (Strain Parkhurst, Resistant Against Synthetic Pyrethroids) (BOOPMI Contact)
9 mg compound is solved in 1 ml acetone and diluted with acetone to the desired concentration. 250 μL of the test solution is filled in 25 ml glass test tubes and homogeneously distributed on the inner walls by rotation and tilting on a shaking device (2 h at 30 rpm). With a compound concentration of 900 ppm, an inner surface of 44.7 cm^2 and a homogeneous distribution, a dose of 5 μg/cm^2 is achieved.
After the solvent has evaporated, each test tube is filled with 20-50 cattle tick larvae (Rhipicephalus microplus), closed with a perforated lid and incubated in a horizontal position at 85% relative humidity and 27° C. in an incubator. After 48 hours efficacy is determined. The larvae are patted on the ground of the tubes and negative geotactic behaviour is recorded.
An efficacy of 100% means all larvae are dead or moribund; 0% means no larvae are dead or moribund.

Spodoptera frugiperda = Spodoptera frugiperda spray test; conditions: in Zea mays, 168 h, read-out: activity (mortality)
Description: Spodoptera frugiperda—Spray Test
Solvent: 78.0 parts by weight acetone • 1.5 parts by weight dimethylformamide
as §1
as §2, with “solvents” for “solvent,”, “and” for “and the concentrate”
Maize (Zea mays) leaf sections are sprayed with a preparation of the active ingredient of the desired concentration. Once dry, the leaf sections are infested with fall armyworm larvae (Spodoptera frugiperda).
After 7 days mortality in % is determined. 100% means all caterpillars have been killed and 0% means none of the caterpillars have been killed.

Structure (SMILES) | pest or weed control at 160 µg/disc, 500 g/ha (Diabrotica balteata) | pest or weed control at 0.004 mg (Boophilus microplus) | pest or weed control at 0.02 mg (Boophilus microplus) | pest or weed control at 5 µg/cm2 [1] | mortality at 500 g/ha (Spodoptera frugiperda) | pest or weed control at 100 g/ha (Diabrotica balteata) | mortality at 100 g/ha (Spodoptera frugiperda)
C[C@H](Nc1nc2cc(C(F)(F)F)ccc2o1)c1ncnn1-c1ncccn1 [Example I-003] | 80% |  |  |  |  |  | 
C[C@H](Nc1nc2cc(C(F)(F)F)cc(Cl)c2o1)c1ncnn1-c1ccc(Cl)cn1 [Example I-015] | 100% | 80% | 100% | 100% | 100% |  | 
C[C@H](Nc1nc2cc(C(F)(F)F)cc(Cl)c2o1)c1ncnn1-c1ccc(C#N)cn1 [Example I-018] | 100% | 100% | 100% | 80% | 100% | 100% | 100%
Cc1nc([C@H](C)Nc2nc3cc(C(F)(F)F)cc(Cl)c3o2)n(-c2ccc(C#N)cn2)n1 [Example I-020] |  |  |  | 100% |  |  | 
Cc1nc([C@H](C)Nc2nc3cc(C(F)(F)F)cc(C(F)(F)F)c3o2)n(-c2ccc(C#N)cn2)n1 [Example I-021] | 100% | 100% | 100% | 80% |  | 100% | 
C[C@H](Nc1nc2cc(C(F)(F)F)cc(Cl)c2o1)c1ncnn1-c1ccc(C(F)(F)F)cn1 [Example I-027] |  | 100% | 100% | 100% | 100% |  | 
Cc1nc([C@H](C)Nc2nc3cc(C(F)(F)F)cc(C(F)(F)F)c3o2)n(-c2ccc(C(F)(F)F)cn2)n1 [Example I-029] |  |  |  | 100% |  |  | 
C[C@H](Nc1nc2cc(C(F)(F)F)cc(C(F)(F)F)c2o1)c1ncnn1-c1ccc(C(F)(F)F)cn1 [Example I-030] |  | 80% | 100% |  |  |  | 
C[C@H](Nc1nc2cc(C(F)(F)F)cc(C(F)(F)F)c2o1)c1ncnn1-c1ccc(Cl)cn1 [Example I-032] |  |  | 100% |  | 100% |  | 
Cc1csc(-n2ncnc2[C@H](C)Nc2nc3cc(C(F)(F)F)cc(Cl)c3o2)n1 [Example I-038, 7-chloro-N-{(1S)-1-[1-(4-methyl-1,3-thiazol-2-yl)-1H-1,2,4-triazol-5-yl]ethyl}-5-(trifluoromethyl)-1,3-benzoxazol-2-amine] |  | 80% |  |  |  |  | 
COc1cnc(-n2ncnc2[C@H](C)Nc2nc3cc(C(F)(F)F)cc(Cl)c3o2)nc1 [Example I-043, 7-Chlor-N-{(1S)-1-[1-(5-methoxypyrimidin-2-yl)-1H-1,2,4-triazol-5-yl]ethyl}-5-(trifluormethyl)-1,3-benzoxazol-2-amin] |  |  |  |  |  |  | 100%
COc1ccnc(-n2ncnc2[C@H](C)Nc2nc3cc(C(F)(F)F)cc(Cl)c3o2)n1 [Example I-051, 7-Chlor-N-{(1S)-1-[1-(4-methoxypyrimidin-2-yl)-1H-1,2,4-triazol-5-yl]ethyl}-5-(trifluormethyl)-1,3-benzoxaozl-2-amin] |  |  | 100% | 80% |  |  | 
C[C@H](Nc1nc2cc(C(F)(F)F)cc(Br)c2o1)c1ncnn1-c1ccc(Cl)cn1 [Example I-054, 7-Brom-N-{(1S)-1-[1-(5-chlorpyridin-2-yl)-1H-1,2,4-triazol-5-yl]ethyl}-5-(trifluormethyl)-1,3-benzoxazol-2-amin] |  |  | 100% | 100% | 100% |  | 
CC(C)c1cc(Cl)c2oc(N[C@@H](C)c3ncnn3-c3ncccn3)nc2c1 [Example I-063, 7-Chlor-5-isopropyl-N-{(1S)-1-[1-(pyrimidin-2-yl)-1H-1,2,4-triazol-5-yl]ethyl}-1,3-benzoxazol-2-amin] | 80% | 80% | 100% |  |  | 100% | 
CC(C)c1cc(Cl)c2oc(N[C@@H](C)c3ncnn3-c3cc(C#N)ccn3)nc2c1 [Example I-064, 2-(5-{(1S)-1-[(7-Chlor-5-isopropyl-1,3-benzoxazol-2-yl)amino]ethyl}-1H-1,2,4-triazol-1-yl)isonicotinonitril] | 100% |  | 80% |  |  | 100% | 
CC(C)c1cc(Cl)c2oc(N[C@@H](C)c3ncnn3-c3ncc(Br)cn3)nc2c1 [Example I-068, N-{(1S)-1-[1-(5-Brompyrimidin-2-yl)-1H-1,2,4-triazol-5-yl]ethyl}-7-chlor-5-isopropyl-1,3-benzoxazol-2-amin] |  | 100% | 100% | 80% |  |  | 
C[C@H](Nc1nc2cc(C(C)(C)C)cc(Cl)c2o1)c1ncnn1-c1ccc(C#N)cn1 [Example I-077, 6-(5-[(1S)-1-[(5-tert-Butyl-7-chlor-1,3-benzoxazol-2-yl)amino]ethyl}-1H-1,2,4-triazol-1-yl)nicotinonitril] |  | 100% | 100% |  |  |  | 
C[C@H](Nc1nc2cc(S(=O)(=O)c3ccccc3)cc(Cl)c2o1)c1ncnn1-c1ncccn1 [Example I-080, 7-Chlor-5-(phenylsulfonyl)-N-{(1S)-1-[1-(pyrimidin-2-yl)-1H-1,2,4-triazol-5-yl]ethyl}-1,3-benzoxazol-2-amin] |  |  |  | 100% |  |  | 
Cc1nc([C@H](C)Nc2nc3cc(Cl)cc(C(F)(F)F)c3o2)n(-c2ncccn2)n1 [Example I-089, 5-Chlor-N-{(1S)-1-[3-methyl-1-(pyrimidin-2-yl)-1H-1,2,4-triazol-5-yl]ethyl}-7-(trifluormethyl)-1,3-benzoxazol-2-amin] |  | 100% | 100% |  |  |  | 
COc1nc([C@H](C)Nc2nc3cc(C(F)(F)F)c(Cl)cc3o2)n(-c2ccc(C#N)cn2)n1 [Example I-101, 6-{5-[(1S)-1-{[6-chloro-5-(trifluoromethyl)-1,3-benzoxazol-2-yl]amino}ethyl]-3-methoxy-1H-1,2,4-triazol-1-yl}pyridine-3-carbonitrile] |  |  |  |  |  | 100% | 
CCN(CC)C(=O)c1ccc(-n2ncnc2[C@H](C)Nc2nc3cc(C(F)(F)F)c(Cl)cc3o2)nc1 [Example I-102, 6-{5-[(1S)-1-{[6-chloro-5-(trifluoromethyl)-1,3-benzoxazol-2-yl]amino}ethyl]-1H-1,2,4-triazol-1-yl}-N,N-diethylpyridine-3-carboxamide] |  |  |  |  |  | 100% | 100%
C[C@H](Nc1nc2cc(C(F)(F)F)c(Cl)cc2o1)c1ncnn1-c1ccc(C(=O)N2CCCC2)cn1 [Example I-103, (6-{5-[(1S)-1-{[6-chloro-5-(trifluroomethyl)-1,3-benzoxazol-2-yl]amino}ethyl]-1H-1,2,4-triazol-1-yl}pyridin-3-yl)(pyrrolidin-1-yl)methanone] |  |  |  |  |  | 100% | 
